The source of these data is patent US20250197407A1 (Jazz Pharmaceuticals Ireland Limited, priority 2022, published 2025).

Each structure is given as a SMILES string.

Chain of SOS1/KRAS WT (Q07889 564-1049): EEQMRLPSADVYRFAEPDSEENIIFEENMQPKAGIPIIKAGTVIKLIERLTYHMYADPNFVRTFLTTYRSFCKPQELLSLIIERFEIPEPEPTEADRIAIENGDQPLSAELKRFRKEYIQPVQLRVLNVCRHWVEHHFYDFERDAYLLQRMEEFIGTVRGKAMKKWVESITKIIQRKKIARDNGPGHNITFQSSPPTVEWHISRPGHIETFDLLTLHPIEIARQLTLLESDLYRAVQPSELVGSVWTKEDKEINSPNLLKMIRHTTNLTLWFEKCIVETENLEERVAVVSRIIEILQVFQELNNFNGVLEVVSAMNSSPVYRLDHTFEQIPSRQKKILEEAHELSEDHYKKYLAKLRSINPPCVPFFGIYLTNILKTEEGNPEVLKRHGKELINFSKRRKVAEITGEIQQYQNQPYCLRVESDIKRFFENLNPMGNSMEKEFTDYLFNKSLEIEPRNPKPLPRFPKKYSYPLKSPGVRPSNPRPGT

For this assay, the target named is SOS1/KRAS WT (Homo sapiens (Human), UniProt Q07889). In words: SOS1/KRAS WT HTRF binding assay (FRET-based protein-protein interaction). The conditions noted are these: inhibition of His6-SOS1 (aa564-1049, 40 nM) binding to GST-KRAS-WT (aa1-188, 40 nM); at least two independent replicates; read-out: SOS1/KRAS WT HTRF Binding assay pIC50 (converted). The procedure, abridged:
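GST-KRAS WT (aa1-188, 40 nM) and His6-SOS1 exchange domain (aa564-1049, 40 nM) were incubated 60 min at room temperature with compound dose response in HEPES pH7.3 buffer with 10 mM EDTA and 100 mM KF. Anti-GST-Eu(K)/anti-6His-XL665 HTRF was read after 4 hr, and IC50 came from a four-parameter fit (≥2 replicates).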
Background: In TR-FRET formats the signal depends on donor and acceptor labels being close together.
`Cc1c(-c2ccnn2C)cccc1[C@@H](C)Nc1nnc(C)c2cc3c(cc12)n(C)c(=O)n3C` [Compound 150, 1,3,8-trimethyl-5-[[(1R)-1-[2-methyl-3-(2-methylpyrazol-3-yl)phenyl]ethyl]amino]imidazo[4,5-g]phthalazin-2-one]: the IC50 was 8.91 nM. As to `Cc1c(-c2ccn(C)n2)cccc1[C@@H](C)Nc1nnc(C)c2cc3c(cc12)n(C)c(=O)n3C` [Compound 151, 1,3,8-trimethyl-5-[[(1R)-1-[2-methyl-3-(1-methylpyrazol-3-yl)phenyl]ethyl]amino]imidazo[4,5-g]phthalazin-2-one], the IC50 is 11 nM. Turning to `Cc1c(-c2cc(C(F)(F)F)nn2C)cccc1[C@@H](C)Nc1nnc(C)c2cc3c(cc12)n(C)c(=O)n3C` [Compound 152, 1,3,8-trimethyl-5-[[(1R)-1-[2-methyl-3-[2-methyl-5-(trifluoromethyl)pyrazol-3-yl]phenyl]ethyl]amino]imidazo[4,5-g]phthalazin-2-one], the IC50 was 85.1 nM.

With `Cc1c(-c2cncnc2)cccc1[C@@H](C)Nc1nnc(C)c2cc3c(cc12)n(C)c(=O)n3C` [Compound 153, 1,3,8-trimethyl-5-[[(1R)-1-(2-methyl-3-pyrimidin-5-yl-phenyl)ethyl]amino]imidazo[4,5-g]phthalazin-2-one], the IC50 was 107 nM. For the compound `Cc1c(C2CC2)cccc1[C@@H](C)Nc1nnc(C)c2cc3c(cc12)n(C)c(=O)n3C` [Compound 154, 1,3,8-trimethyl-5-[[(1R)-1-(3-cyclopropyl-2-methyl-phenyl)ethyl]amino]imidazo[4,5-g]phthalazin-2-one], the IC50 was 15.8 nM. As for `Cc1c(-c2ccn[nH]2)cccc1[C@@H](C)Nc1nnc(C)c2cc3c(cc12)n(C)c(=O)n3C` [Compound 155, 1,3,8-trimethyl-5-[[(1R)-1-[2-methyl-3-(1H-pyrazol-5-yl)phenyl]ethyl]amino]imidazo[4,5-g]phthalazin-2-one], the IC50 is 30.9 nM. For `Cc1cc(-c2cccc([C@@H](C)Nc3nnc(C)c4cc5c(cc34)n(C)c(=O)n5C)c2C)n(C)n1` [Compound 156, 1,3,8-trimethyl-5-[[(1R)-1-[3-(2,5-dimethylpyrazol-3-yl)-2-methyl-phenyl]ethyl]amino]imidazo[4,5-g]phthalazin-2-one], the IC50 is 89.1 nM. `Cc1c(C2=CCOCC2)cccc1[C@@H](C)Nc1nnc(C)c2cc3c(cc12)n(C)c(=O)n3C` [Compound 157, 5-[[(1R)-1-[3-(3,6-dihydro-2H-pyran-4-yl)-2-methyl-phenyl]ethyl]amino]-1,3,8-trimethyl-imidazo[4,5-g]phthalazin-2-one]: the IC50 is 204 nM.

Take `Cc1c(C2=CCNC2)cccc1[C@@H](C)Nc1nnc(C)c2cc3c(cc12)n(C)c(=O)n3C` [Compound 158, 1,3,8-trimethyl-5-[[(1R)-1-[3-(2,5-dihydro-1H-pyrrol-3-yl)-2-methyl-phenyl]ethyl]amino]imidazo[4,5-g]phthalazin-2-one]: the IC50 is 120 nM. In the case of `Cc1c(-c2cncs2)cccc1[C@@H](C)Nc1nnc(C)c2cc3c(cc12)n(C)c(=O)n3C` [Compound 159, 1,3,8-trimethyl-5-[[(1R)-1-(2-methyl-3-thiazol-5-yl-phenyl)ethyl]amino]imidazo[4,5-g]phthalazin-2-one], the IC50 is 17.8 nM.

For `Cc1c(C2CCOCC2)cccc1[C@@H](C)Nc1nnc(C)c2cc3c(cc12)n(C)c(=O)n3C` [Compound 160, 1,3,8-trimethyl-5-[[(1R)-1-(2-methyl-3-tetrahydropyran-4-yl-phenyl)ethyl]amino]imidazo[4,5-g]phthalazin-2-one], the IC50 was 269 nM. For the compound `Cc1c(C2CCNC2)cccc1[C@@H](C)Nc1nnc(C)c2cc3c(cc12)n(C)c(=O)n3C` (stereo partly drawn) [Compound 161, 1,3,8-trimethyl-5-[[(1R)-1-(2-methyl-3-pyrrolidin-3-yl-phenyl)ethyl]amino]imidazo[4,5-g]phthalazin-2-one], the IC50 is 589 nM. Consider `CCOC1(C)C(=O)N(C2CC2)c2cc3c(N[C@H](C)c4cccc(C(F)(F)CO)c4)nnc(C)c3cc21` (stereo partly drawn) [Compound 162, 1-cyclopropyl-8-[[(1R)-1-[3-(1,1-difluoro-2-hydroxy-ethyl)phenyl]ethyl]amino]-3-ethoxy-3,5-dimethyl-pyrrolo[3,2-g]phthalazin-2-one], for which the IC50 was 9.12 nM. For the compound `CCOC1(C)C(=O)N(C2CC2)c2cc3c(N[C@H](C)c4cccc(C(F)(F)C(C)(C)O)c4F)nnc(C)c3cc21` (stereo partly drawn) [Compound 163, 1-cyclopropyl-3-ethoxy-3,5-dimethyl-8-[[(1R)-1-[3-(1,1-difluoro-2-hydroxy-2-methyl-propyl)-2-fluoro-phenyl]ethyl]amino]pyrrolo[2,3-g]phthalazin-2-one], the IC50 is 10.7 nM. As for `CCOC1(C)C(=O)N(C2CC2)c2cc3c(N[C@H](C)c4cccc(C(F)(F)CO)c4F)nnc(C)c3cc21` (stereo partly drawn) [Compound 164, 1-cyclopropyl-3-ethoxy-3,5-dimethyl-8-[[(1R)-1-[3-(1,1-difluoro-2-hydroxy-ethyl)-2-fluoro-phenyl]ethyl]amino]pyrrolo[2,3-g]phthalazin-2-one], the IC50 is 11.5 nM. For `CCOC1(C)C(=O)N(C2CC2)c2cc3c(N[C@H](C)c4cccc(C(F)(F)C(C)(C)O)c4)nnc(C)c3cc21` (stereo partly drawn) [Compound 165, 1-cyclopropyl-3-ethoxy-3,5-dimethyl-8-[[(1R)-1-[3-(1,1-difluoro-2-hydroxy-2-methyl-propyl)phenyl]ethyl]amino]pyrrolo [2,3-g]phthalazin-2-one], the IC50 was 10 nM.

Take `CCOC1(C)C(=O)N(C2CC2)c2cc3c(N[C@H](C)c4cccc(C(F)(F)C(C)(C)O)c4C)nnc(C)c3cc21` (stereo partly drawn) [Compound 166, 1-cyclopropyl-3-ethoxy-3,5-dimethyl-8-[[(1R)-1-[3-(1,1-difluoro-2-hydroxy-2-methyl-propyl)-2-methyl-phenyl]ethyl]amino]pyrrolo[2,3-g]phthalazin-2-one]: the IC50 is 14.8 nM. Turning to `CCOC1(C)C(=O)N(C2CC2)c2cc3c(N[C@H](C)c4cccc(C(F)(F)CO)c4C)nnc(C)c3cc21` (stereo partly drawn) [Compound 167, 1-cyclopropyl-3-ethoxy-3,5-dimethyl-8-[[(1R)-1-[3-(1,1-difluoro-2-hydroxy-ethyl)-2-methyl-phenyl]ethyl]amino]pyrrolo[2,3-g]phthalazin-2-one], the IC50 was 12.6 nM. For `CCN1C(=O)C(C)(OC)c2cc3c(C)nnc(N[C@H](C)c4cccc(C(F)(F)CO)c4C)c3cc21` (stereo partly drawn) [Compound 168, 1-ethyl-3-methoxy-3,5-dimethyl-8-[[(1R)-1-[3-(1,1-difluoro-2-hydroxy-ethyl)-2-methyl-phenyl]ethyl]amino]pyrrolo[2,3-g]phthalazin-2-one], the IC50 is 8.91 nM.

Take `CCN1C(=O)C(C)(OC)c2cc3c(C)nnc(N[C@H](C)c4cccc(C(F)(F)C(C)(C)O)c4C)c3cc21` (stereo partly drawn) [Compound 169, 1-ethyl-3-methoxy-3,5-dimethyl-8-[[(1R)-1-[3-(1,1-difluoro-2-hydroxy-2-methyl-propyl)-2-methyl-phenyl]ethyl]amino]pyrrolo[2,3-g]phthalazin-2-one]: the IC50 is 10.2 nM. On to `CCN1C(=O)C(C)(OC)c2cc3c(C)nnc(N[C@H](C)c4cccc(C(F)(F)C(C)(C)O)c4F)c3cc21` (stereo partly drawn) [Compound 170, 1-ethyl-3-methoxy-3,5-dimethyl-8-[[(1R)-1-[3-(1,1-difluoro-2-hydroxy-2-methyl-propyl)-2-fluoro-phenyl]ethyl]amino]pyrrolo[2,3-g]phthalazin-2-one], for which the IC50 was 9.12 nM. In the case of `CCN1C(=O)C(C)(OC)c2cc3c(C)nnc(N[C@H](C)c4cccc(C(F)(F)CO)c4)c3cc21` (stereo partly drawn) [Compound 171, 1-ethyl-3-methoxy-3,5-dimethyl-8-[[(1R)-1-[3-(1,1-difluoro-2-hydroxy-ethyl)phenyl]ethyl]amino]pyrrolo [2,3-g]phthalazin-2-one], the IC50 was 9.77 nM.

Turning to `CCN1C(=O)C(C)(OC)c2cc3c(C)nnc(N[C@H](C)c4cccc(C(F)(F)CO)c4F)c3cc21` (stereo partly drawn) [Compound 172, 1-ethyl-3-methoxy-3,5-dimethyl-8-[[(1R)-1-[3-(1,1-difluoro-2-hydroxy-ethyl)-2-fluoro-phenyl]ethyl]amino]pyrrolo[2,3-g]phthalazin-2-one], the IC50 was 9.77 nM.

With `CCN1C(=O)C(C)(OC)c2cc3c(C)nnc(N[C@H](C)c4cccc(C(F)(F)C(C)(C)O)c4)c3cc21` (stereo partly drawn) [Compound 173, 1-ethyl-3-methoxy-3,5-dimethyl-8-[[(1R)-1-[3-(1,1-difluoro-2-hydroxy-2-methyl-propyl)phenyl]ethyl]amino]pyrrolo [2,3-g]phthalazin-2-one], the IC50 was 11.7 nM.

`COC1(C)C(=O)N(C)c2cc3c(C)nnc(N[C@H](C)c4cccc(C(F)(F)C(C)(C)O)c4C)c3cc21` (stereo partly drawn) [Compound 174, 3-methoxy-1,3,8-trimethyl-5-[[(1R)-1-[3-(1,1-difluoro-2-hydroxy-2-methyl-propyl)-2-methyl-phenyl]ethyl]amino]pyrrolo[3,2-g]phthalazin-2-one]: the IC50 is 15.8 nM. As for `COC1(C)C(=O)N(C)c2cc3c(N[C@H](C)c4cc(F)cc(C(F)(F)C(C)(C)O)c4)nnc(C)c3cc21` (stereo partly drawn) [Compound 175, 3-methoxy-1,3,5-trimethyl-8-[[(1R)-1-[3-(1,1-difluoro-2-hydroxy-2-methyl-propyl)-5-fluoro-phenyl]ethyl]amino]pyrrolo[2,3-g]phthalazin-2-one], the IC50 was 14.5 nM.

For `COC1(C)C(=O)N(C)c2cc3c(C)nnc(N[C@H](C)c4cccc(C(F)(F)CO)c4F)c3cc21` (stereo partly drawn) [Compound 176, 3-methoxy-1,3,8-trimethyl-5-[[(1R)-1-[3-(1,1-difluoro-2-hydroxy-ethyl)-2-fluoro-phenyl]ethyl]amino]pyrrolo[3,2-g]phthalazin-2-one], the IC50 is 10.7 nM.
